Laboratory results as given in ChEMBL document CHEMBL1201862, “PubChem BioAssay data set” (2004).
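Where inhibition never reached the appropriate level, the endpoint shown equals the highest concentration tested. Otherwise, values were interpolated linearly from a five-concentration, 48-hour dose response in 96-well plates. At the GI50, growth is halved.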 Activity calls are given as the source filed them. Rule as the data show it: active = GI50 up to about 1.1 µM and inactive = higher.

Tests used:
Test in all cases: NCI-60 cell line screen, 48 h
SK-MEL-2 = system: SK-MEL-2
SR = system: SR
EKVX = system: EKVX
RXF 393 = system: RXF 393
A498 = system: A498
MCF7 = system: MCF7
SNB-75 = system: SNB-75
MDA-MB-231 = system: MDA-MB-231
COLO 205 = system: COLO 205
OVCAR-3 = system: OVCAR-3
KM12 = system: KM12
NCI-H522 = system: NCI-H522
HT-29 = system: HT-29
HOP-62 = system: HOP-62
CAKI-1 = system: CAKI-1
SF-268 = system: SF-268
SF-295 = system: SF-295
MDA-N = system: MDA-N
MOLT-4 = system: MOLT-4
RPMI-8226 = system: RPMI-8226
T47D = system: T47D
K562 = system: K562
UO-31 = system: UO-31
CCRF-CEM = system: CCRF-CEM
SK-MEL-5 = system: SK-MEL-5
MDA-MB-435 = system: MDA-MB-435
NCI-H226 = system: NCI-H226
IGROV-1 = system: IGROV-1
OVCAR-4 = system: OVCAR-4
HCT-116 = system: HCT-116
BT-549 = system: BT-549
SK-MEL-28 = system: SK-MEL-28
SNB-19 = system: SNB-19
U-251 = system: U-251
TK-10 = system: TK-10
NCI-H23 = system: NCI-H23
PC-3 = system: PC-3
DU-145 = system: DU-145
Malme-3M = system: Malme-3M
NCI-H460 = system: NCI-H460
NCI/ADR-RES = system: NCI/ADR-RES
SN12C = system: SN12C
HCC 2998 = system: HCC 2998
UACC-257 = system: UACC-257
A549 = system: A549
OVCAR-8 = system: OVCAR-8
M14 = system: M14
SK-OV-3 = system: SK-OV-3
Hs-578T = system: Hs-578T
UACC-62 = system: UACC-62
OVCAR-5 = system: OVCAR-5
ACHN = system: ACHN
SW-620 = system: SW-620
786-0 = system: 786-0
HCT-15 = system: HCT-15

COC(=O)/C=C(/C)n1nc2ccccc2n1
GI50 (SK-MEL-2): > 100 µM (inactive) | GI50 (SR): > 100 µM (inactive) | GI50 (EKVX): 37.7 µM (inactive) | GI50 (RXF 393): > 100 µM (inactive) | GI50 (A498): 77.3 µM (inactive) | GI50 (MCF7): > 100 µM (inactive) | GI50 (SNB-75): > 100 µM (inactive) | GI50 (MDA-MB-231): > 100 µM (inactive) | GI50 (COLO 205): > 100 µM (inactive) | GI50 (OVCAR-3): > 100 µM (inactive) | GI50 (KM12): > 100 µM (inactive) | GI50 (NCI-H522): > 100 µM (inactive) | GI50 (HT-29): > 100 µM (inactive) | GI50 (HOP-62): > 100 µM (inactive) | GI50 (CAKI-1): > 100 µM (inactive) | GI50 (SF-268): > 100 µM (inactive) | GI50 (SF-295): > 100 µM (inactive) | GI50 (MDA-N): > 100 µM (inactive) | GI50 (MOLT-4): > 100 µM (inactive) | GI50 (RPMI-8226): 22.4 µM (inactive) | GI50 (T47D): > 100 µM (inactive) | GI50 (K562): > 100 µM (inactive) | GI50 (UO-31): > 100 µM (inactive) | GI50 (CCRF-CEM): > 100 µM (inactive) | GI50 (SK-MEL-5): > 100 µM (inactive) | GI50 (MDA-MB-435): > 100 µM (inactive) | GI50 (NCI-H226): > 100 µM (inactive) | GI50 (IGROV-1): > 100 µM (inactive) | GI50 (OVCAR-4): > 100 µM (inactive) | GI50 (HCT-116): > 100 µM (inactive) | GI50 (BT-549): > 100 µM (inactive) | GI50 (SK-MEL-28): > 100 µM (inactive) | GI50 (SNB-19): > 100 µM (inactive) | GI50 (U-251): > 100 µM (inactive) | GI50 (TK-10): > 100 µM (inactive) | GI50 (NCI-H23): > 100 µM (inactive) | GI50 (PC-3): > 100 µM (inactive) | GI50 (DU-145): > 100 µM (inactive) | GI50 (Malme-3M): > 100 µM (inactive) | GI50 (NCI-H460): > 100 µM (inactive) | GI50 (NCI/ADR-RES): > 100 µM (inactive) | GI50 (SN12C): > 100 µM (inactive) | GI50 (HCC 2998): > 100 µM (inactive) | GI50 (UACC-257): > 100 µM (inactive) | GI50 (A549): > 100 µM (inactive) | GI50 (OVCAR-8): > 100 µM (inactive) | GI50 (M14): > 100 µM (inactive) | GI50 (SK-OV-3): > 100 µM (inactive) | GI50 (Hs-578T): > 100 µM (inactive) | GI50 (UACC-62): > 100 µM (inactive) | GI50 (OVCAR-5): > 100 µM (inactive) | GI50 (ACHN): > 100 µM (inactive) | GI50 (SW-620): > 100 µM (inactive) | GI50 (786-0): > 100 µM (inactive) | GI50 (HCT-15): > 100 µM
